Laboratory results reported in patent publication US6348460B1 (priority 1997, dated 2002).

melting point | Structure (SMILES)
165 °C | Cc1nnsc1C(=O)NS(C)(=O)=O
60 °C (dec.) | Cc1ccc(N(SN2CCOCC2)C(=O)c2snnc2C)cc1 [b183, 4-methyl-N-(4-methylphenyl)-N-morpholinothio-1,2,3-thiadiazole-5-carboxamide]
